In patent US9242981B2, “Fused pyrazole derivatives as novel ERK inhibitors” (Merck Sharp & Dohme Corp., priority 2010, dated 2016):
pIC50, pKd: −log10 of the molar value.

What was measured:
[1] = biological target: ERK protein (Mus musculus, UniProt P63085); experiment: TdF (Temperature Dependence Fluorescence, thermal shift) assay for ERK; format: binding; settings: Table 2; 3 μM ERK protein
Text: The SAR (Structure Activity Relationship) for ERK ligands covered by this invention was interrogated using the TdF (Temperature Dependence Fluorescence) assay or best known as thermal shift assay. (M. W. Pantoliano, et al., “High-density miniaturized thermal shift assays as a general strategy for drug discovery,” J. Biomol. Screen 6 (2001) 429-440) The TdF assay was mainly conducted in the 96-well based CHROMO-4 real time fluorescence plate reader (BioRad). The Sypro Orange (Sigma-Aldrich), environmentally sensitive fluorescence dye, was used to monitor the protein folding-unfolding transition. Protein-ligand binding was gauged by the change (or shift) in the unfolding transition temperature (ΔTm) acquired at protein alone with respect to protein in the presence of ligand of interest.
Compound of interest was first prepared in DMSO stock (typical concentration: 10 mM). […] Final percentage of DMSO resided in the sample was 2%. The sample plate was heated from 30° C. to 90° C. with thermal ramping rate of 1° C./min. The fluorescence signals were acquired with excitation and emission wavelengths centered at 490 and 560 nm respectively. The instrument thermal stability was ±0.2° C. The melting temperatures (Tm) for ERK protein under aforementioned conditions occurred at […] and 64.8±0.2° C. respectively.
The derivation of TdF-based ligand binding affinity constant (Kd) followed closely those previously formulated by Brandts and Lin. (J. F. Brandts, L.-N. Lin, “Study of strong to ultratight protein interactions using differential scanning calorimetry,” Biochemistry 29 (1990) 6927-6940). In brief, the binding constant of the ligand at the Tm is expressed as below:
[formula] where T0 is the midpoint of unfolding for unliganded protein and Tm is the midpoint of unfolding in presence of ligand. [LTm] is free ligand at Tm. The ΔHu and ΔCpu are the enthalpy of unfolding and heat capacity change of unfolding for the protein respectively. Following algorithm derived by Winsor and coworker, the T0, ΔHu and ΔCpu can be determined separately from nonlinear regression fitting the protein alone melting curve:
[formula] where F(T) is the observed fluorescence intensity at any temperature T, Yn, and Yu are the predicted fluorescence intensities for fully folded and unfolded protein, respectively; mn and mu are slope correction for changes in Yn and Yu with respect to changes in temperature (analogously replace T0 with Tm in the above equation for liganded protein to yield Tm). (Mayhood, T. W., Windsor, W. T., “Ligand binding affinity determined by temperature-dependent circular dichroism: Cyclin-dependent kinase 2 inhibitors,” Analytical Biochemistry 345 (2005) 187-197).
[formula] where ΔHL (T) is the van't Hoff enthalpy of ligand binding at temperature T and ΔCpL is the heat capacity upon ligand binding. For simplicity, the ΔCpL and ΔHL (T) were set to zero and -7 kcal/mol respectively. […]

[2] = biological target: Mouse ERK2 protein (Mus musculus (Mouse), UniProt P63085); experiment: Coupled MEK1/ERK2 IMAP assay or Active ERK2 IMAP assay; format: biochemical; settings: Table 2, 30 μM ATP
Chain of Mouse ERK2 protein (P63085 whole entry): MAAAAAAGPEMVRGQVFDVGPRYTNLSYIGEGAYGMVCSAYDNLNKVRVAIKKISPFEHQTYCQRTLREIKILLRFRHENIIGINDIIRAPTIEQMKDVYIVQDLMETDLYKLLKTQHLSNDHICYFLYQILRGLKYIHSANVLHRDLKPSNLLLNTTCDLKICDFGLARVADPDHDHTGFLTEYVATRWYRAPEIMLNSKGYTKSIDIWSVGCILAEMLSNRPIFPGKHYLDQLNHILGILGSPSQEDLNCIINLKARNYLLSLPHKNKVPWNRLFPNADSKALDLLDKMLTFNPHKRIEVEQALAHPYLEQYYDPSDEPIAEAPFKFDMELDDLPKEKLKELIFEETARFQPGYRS

Chain of ERK protein (P63085 2-358 limits assumed): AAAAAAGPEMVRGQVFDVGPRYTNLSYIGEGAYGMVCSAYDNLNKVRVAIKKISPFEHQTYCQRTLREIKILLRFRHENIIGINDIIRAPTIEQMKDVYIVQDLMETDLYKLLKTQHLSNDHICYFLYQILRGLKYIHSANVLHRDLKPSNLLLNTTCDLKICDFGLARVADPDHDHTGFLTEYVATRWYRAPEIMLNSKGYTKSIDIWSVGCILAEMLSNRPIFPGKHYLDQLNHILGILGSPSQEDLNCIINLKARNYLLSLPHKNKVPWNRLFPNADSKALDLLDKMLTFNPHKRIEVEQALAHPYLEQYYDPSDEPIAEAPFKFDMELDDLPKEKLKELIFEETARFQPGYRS

O=C(N[C@@H]1CCCN(Cc2ccccc2F)C1)N1CCc2[nH]nc(-c3ccncc3)c2C1 [Compound 48, N-[1-[(2-fluorophenyl)methyl]-3(R)-piperidinyl]-1,4,6,7-tetrahydro-3-(4-pyridinyl)-5H-pyrazolo[4,3-c]pyridine-5-carboxamide]
pKd [1]: 9.43 | pIC50 [2]: 9.19

O=C(N[C@@H]1CCCN(Cc2cccc3ccccc23)C1)N1CCc2[nH]nc(-c3ccc4nccn4c3)c2C1 [Compound 112, 1,4,6,7-tetrahydro-3-imidazo[1,2-a]pyridin-6-yl-N-[1-(1-naphthalenylmethyl)-3(R)-piperidinyl]-5H-pyrazolo[4,3-c]pyridine-5-carboxamide]
pKd [1]: 9.92 | pIC50 [2]: 8.51
